Test results from patent US6620839B2, “1,3-disubstituted and 1,3,3-trisubstituted pyrrolidines as histamine-3 receptor ligands and their therapeutic applications” (Abbott Laboratories, priority 2000, dated 2003).

target: T1, histamine-3 receptor (Rattus norvegicus, UniProt Q9QYN8); experiment: Histamine-3 receptor binding, (3H)-N-α-methylhistamine displacement in rat cortical membranes; settings: male Sprague-Dawley rat brain cortical membranes; (3H)-N-α-methylhistamine ~0.6 nM; 30 minutes at 25° C.; Cheng-Prusoff
T1 construct: from tissue; host or cells: male Sprague-Dawley rat brain cortex membranes
T1 sequence (Q9QYN8 whole entry): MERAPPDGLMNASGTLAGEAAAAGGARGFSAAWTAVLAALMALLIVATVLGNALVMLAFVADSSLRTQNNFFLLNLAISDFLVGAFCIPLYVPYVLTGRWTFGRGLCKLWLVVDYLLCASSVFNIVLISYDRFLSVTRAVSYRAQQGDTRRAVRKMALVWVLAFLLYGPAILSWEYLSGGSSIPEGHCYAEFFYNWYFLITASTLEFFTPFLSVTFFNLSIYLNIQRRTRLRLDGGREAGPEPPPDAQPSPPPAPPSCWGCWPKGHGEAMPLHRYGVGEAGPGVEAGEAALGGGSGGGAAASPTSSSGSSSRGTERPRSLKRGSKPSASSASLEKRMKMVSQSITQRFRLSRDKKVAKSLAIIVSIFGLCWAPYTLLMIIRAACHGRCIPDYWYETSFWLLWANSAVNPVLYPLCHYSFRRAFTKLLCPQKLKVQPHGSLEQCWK
Procedure: Briefly, male Sprague-Dawley rat brain cortices were homogenized (1 g tissue/10 mL buffer) in 50 mM Tris-HCl/5 mM EDTA containing protease inhibitor cocktail (Calbiochem) using a polytron set at 20,500 rpm. Homogenates were centrifuged for 20 minutes at 40,000×g. The supernatant was decanted, and pellets were weighed. The pellet was resuspended by polytron homogenization in 40 mL 50 mM Tris-HCl/5 mM EDTA with protease inhibitors and centrifuged for 20 minutes at 40,000×g. […] Test compounds were dissolved in DMSO to provide 20 mM solution, serially diluted and then added to the incubation mixtures prior to initiating the incubation assay by addition of the membranes. Thioperamide (3 μM) was used to determine nonspecific binding. Binding incubations were conducted for 30 minutes at 25° C. and terminated by addition of 2 mL of ice cold 50 mM Tris-HCl (pH 7.7) and filtration through 0.3% polyethylenimine-soaked Unifilter plates (Packard). These filters were washed 4 additional times with 2 mL of ice-cold 50 mM Tris-HCl and dried for 1 hour. Radioactivity was determined using liquid scintillation counting techniques. Results were analyzed by Hill transformation and Ki values were determined using the Cheng-Prusoff equation.

Row | SMILES | Ki
1 | CC(=O)c1ccc(OCCCN2CC[C@@H](NS(=O)(=O)c3cccn3-c3ncc(C(F)(F)F)cc3Cl)C2)cc1 [Example 78, N-{(3R)-1-[3-(4-acetylphenoxy)propyl]pyrrolidinyl}-1-[3-chloro-5-(trifluoromethyl)-2-pyridinyl]-1H-pyrrole-2-sulfonamide] | 8.7 nM
2 | CC(=O)c1ccc(OCCCN2CC[C@@H](NS(=O)(=O)c3ccc(Oc4ncc(C(F)(F)F)cc4Cl)cc3)C2)cc1 [Example 79, N-{(3R)-1-[3-(4-acetylphenoxy)propyl]pyrrolidinyl}-4-{[3-chloro-5-(trifluoromethyl)-2-pyridinyl]oxy}benzenesulfonamide] | 7.9 nM
3 | Cn1cnc(S(=O)(=O)N[C@@H]2CCN(CCCOc3ccc(C(=O)C4CC4)cc3)C2)c1 [Example 80, N-((3R)-1-{3-[4-(cyclopropylcarbonyl)phenoxy]propyl}pyrrolidinyl)-1-methyl-1H-imidazole-4-sulfonamide] | 10 nM
4 | O=C(c1ccc(OCCCN2CC[C@@H](NS(=O)(=O)c3cccs3)C2)cc1)C1CC1 [Example 81, N-((3R)-1-{3-[4-(cyclopropylcarbonyl)phenoxy]propyl}pyrrolidinyl)-2-thiophenesulfonamide] | 5 nM
5 | Cc1c(S(=O)(=O)N[C@@H]2CCN(CCCOc3ccc(C(=O)C4CC4)cc3)C2)sc2ccc(Cl)cc12 [Example 82, 5-chloro-N-((3R)-1-{3-[4-(cyclopropylcarbonyl)phenoxy]propyl}pyrrolidinyl)-3-methyl-1-benzothiophene-2-sulfonamide] | 21 nM
6 | O=C(c1ccc(OCCCN2CC[C@@H](NS(=O)(=O)c3cc(C(F)(F)F)cc(C(F)(F)F)c3)C2)cc1)C1CC1 [Example 83, N-((3R)-1-{3-[4-(cyclopropylcarbonyl)phenoxy]propyl}pyrrolidinyl)-3,5-bis(trifluoromethyl)benzenesulfonamide] | 23 nM
7 | O=C(c1ccc(OCCCN2CC[C@@H](NS(=O)(=O)c3cccc4cccnc34)C2)cc1)C1CC1 [Example 84, N-((3R)-1-{3-[4-(cyclopropylcarbonyl)phenoxy]propyl}pyrrolidinyl)-8-quinolinesulfonamide] | 9.5 nM
8 | CCCCOc1ccc(S(=O)(=O)N[C@@H]2CCN(CCCOc3ccc(C(=O)C4CC4)cc3)C2)cc1 [Example 85, 4-butoxy-N-((3R)-1-{3-[4-(cyclopropylcarbonyl)phenoxy]propyl}pyrrolidinyl)benzenesulfonamide] | 5.3 nM
9 | COc1ccc(S(=O)(=O)N[C@@H]2CCN(CCCOc3ccc(C(=O)C4CC4)cc3)C2)cc1OC [Example 86, N-((3R)-1-{3-[4-(cyclopropylcarbonyl)phenoxy]propyl}pyrrolidinyl)-3,4-dimethoxybenzenesulfonamide] | 1.8 nM
10 | Cc1ccc(S(=O)(=O)N[C@@H]2CCN(CCCOc3ccc(C(=O)C4CC4)cc3)C2)cc1Cl [Example 87, 3-chloro-N-((3R)-1-{3-[4-(cyclopropylcarbonyl)phenoxy]propyl}pyrrolidinyl)-4-methylbenzenesulfonamide] | 4.9 nM
11 | O=C(c1ccc(OCCCN2CC[C@@H](NS(=O)(=O)C=Cc3ccccc3)C2)cc1)C1CC1 [Example 88, N-((3R)-1-{3-[4-(cyclopropylcarbonyl)phenoxy]propyl}pyrrolidinyl)-2-phenylethenesulfonamide] | 6.8 nM
12 | O=C(c1ccc(OCCCN2CC[C@@H](NS(=O)(=O)c3ccccc3OC(F)(F)F)C2)cc1)C1CC1 [Example 89, N-((3R)-1-{3-[4-(cyclopropylcarbonyl)phenoxy]propyl}pyrrolidinyl)-2-(trifluoromethoxy)benzenesulfonamide] | 11 nM
13 | N#Cc1ccccc1S(=O)(=O)N[C@@H]1CCN(CCCOc2ccc(C(=O)C3CC3)cc2)C1 [Example 90, 2-cyano-N-((3R)-1-{3-[4-(cyclopropylcarbonyl)phenoxy]propyl}pyrrolidinyl)benzenesulfonamide] | 11 nM
14 | Cc1cccc(S(=O)(=O)N[C@@H]2CCN(CCCOc3ccc(C(=O)C4CC4)cc3)C2)c1 [Example 91, N-((3R)-1-{3-[4-(cyclopropylcarbonyl)phenoxy]propyl}pyrrolidinyl)-3-methylbenzenesulfonamide] | 2.8 nM
15 | O=C(c1ccc(OCCCN2CC[C@@H](NS(=O)(=O)c3ccc(C(F)(F)F)cc3)C2)cc1)C1CC1 [Example 92, N-((3R)-1-{3-[4-(cyclopropylcarbonyl)phenoxy]propyl}pyrrolidinyl)-4-(trifluoromethyl)benzenesulfonamide] | 4.9 nM
16 | O=C(c1ccc(OCCCN2CC[C@@H](NS(=O)(=O)c3cccc(F)c3)C2)cc1)C1CC1 [Example 93, N-((3R)-1-{3-[4-(cyclopropylcarbonyl)phenoxy]propyl}pyrrolidinyl)-3-fluorobenzenesulfonamide] | 3.2 nM

The remaining lines, values ahead:

Row | Ki | SMILES
17 | 4.9 nM | O=C(c1ccc(OCCCN2CC[C@@H](NS(=O)(=O)c3ccc(OC(F)(F)F)cc3)C2)cc1)C1CC1 [Example 94, N-((3R)-1-{3-[4-(cyclopropylcarbonyl)phenoxy]propyl}pyrrolidinyl)-4-(trifluoromethoxy)benzenesulfonamide]
18 | 4.6 nM | O=C(c1ccc(OCCCN2CC[C@@H](NS(=O)(=O)c3cccc4ccncc34)C2)cc1)C1CC1 [Example 95, N-((3R)-1-{3-[4-(cyclopropylcarbonyl)phenoxy]propyl}pyrrolidinyl)-8-isoquinolinesulfonamide]
19 | 1.2 nM | CC(=O)Nc1ccc(S(=O)(=O)N[C@@H]2CCN(CCCOc3ccc(C(=O)C4CC4)cc3)C2)cc1Cl [Example 96, N-(2-chloro-4-{[((3R)-1-{3-[4-(cyclopropylcarbonyl)phenoxy]propyl}pyrrolidinyl)amino]sulfonyl}phenyl)acetamide]
20 | 6.7 nM | O=C(c1ccc(OCCCN2CC[C@@H](NS(=O)(=O)c3ccc(Cl)c(Cl)c3)C2)cc1)C1CC1 [Example 97, 3,4-dichloro-N-((3R)-1-{3-[4-(cyclopropylcarbonyl)phenoxy]propyl}pyrrolidinyl)benzenesulfonamide]
21 | 1630 nM | CC(C)(C)OC(=O)N[C@H]1CCN(CCOc2ccc(-c3ccc(C#N)cc3)cc2)C1 [Example 100, tert-butyl (3S)-1-{2-[(4′-cyano[1,1′-biphenyl]-4-yl)oxy]ethyl}pyrrolidinylcarbamate]
22 | 179 nM | COc1ccc(S(=O)(=O)N[C@@H]2CCN(CCCOc3ccc(-c4ccccn4)cc3)C2)cc1 [Example 101, 4-methoxy-N-((3R)-1-{3-[4-(2-pyridinyl)phenoxy]propyl}pyrrolidinyl)benzenesulfonamide]
23 | 112 nM | CC(C)c1ccc(S(=O)(=O)N[C@@H]2CCN(CCCOc3ccc(-c4ccccn4)cc3)C2)cc1 [Example 102, 4-isopropyl-N-((3R)-1-{3-[4-(2-pyridinyl)phenoxy]propyl}pyrrolidinyl)benzenesulfonamide]
24 | 195 nM | N#Cc1ccc(S(=O)(=O)N[C@@H]2CCN(CCCOc3ccc(-c4ccccn4)cc3)C2)cc1 [Example 103, 4-cyano-N-((3R)-1-{3-[4-(2-pyridinyl)phenoxy]propyl}pyrrolidinyl)benzenesulfonamide]
25 | 173 nM | N#Cc1cccc(S(=O)(=O)N[C@@H]2CCN(CCCOc3ccc(-c4ccccn4)cc3)C2)c1 [Example 104, 3-cyano-N-((3R)-1-{3-[4-(2-pyridinyl)phenoxy]propyl}pyrrolidinyl)benzenesulfonamide]
26 | 725 nM | Cn1cnc(S(=O)(=O)N[C@@H]2CCN(CCCOc3ccc(-c4ccccn4)cc3)C2)c1 [Example 105, 1-methyl-N-((3R)-1-{3-[4-(2-pyridinyl)phenoxy]propyl}pyrrolidinyl)-1 H-imidazole-4-sulfonamide]
27 | 168 nM | COc1ccc(S(=O)(=O)N[C@@H]2CCN(CCCOc3ccc(-c4ccccn4)cc3)C2)cc1OC [Example 106, 3,4-dimethoxy-N-((3R)-1-{3-[4-(2-pyridinyl)phenoxy]propyl}pyrrolidinyl)benzenesulfonamide]
28 | 200 nM | CC(=O)Nc1ccc(S(=O)(=O)N[C@@H]2CCN(CCCOc3ccc(-c4ccccn4)cc3)C2)cc1Cl [Example 107]
29 | 26 nM | CN(C(=O)OC(C)(C)C)[C@@H]1CCN(CCCOc2ccc(-c3ccc(C#N)cc3)cc2)C1 [Example 109, tert-butyl (3R)-1-{3-[(4′-cyano[1,1′-biphenyl]-4-yl)oxy]propyl}pyrrolidinyl(methyl)carbamate]
30 | 11 nM | CC(=O)N(C)[C@@H]1CCN(CCCOc2ccc(-c3ccc(C#N)cc3)cc2)C1 [Example 111]
31 | 13 nM | CN(C(=O)CC(C)(C)C)[C@@H]1CCN(CCCOc2ccc(-c3ccc(C#N)cc3)cc2)C1 [Example 112]
32 | 13 nM | COC(=O)N(C)[C@@H]1CCN(CCCOc2ccc(-c3ccc(C#N)cc3)cc2)C1 [Example 113, methyl (3R)-1-{3-[(4′-cyano[1,1′-biphenyl]-4-yl)oxy]propyl}pyrrolidinyl(methyl)carbamate]
33 | 65 nM | CCC(C)(C)OC(=O)N(C)[C@@H]1CCN(CCCOc2ccc(-c3ccc(C#N)cc3)cc2)C1 [Example 114, tert-pentyl (3R)-1-{3-[(4′-cyano[1,1′-biphenyl]-4-yl)oxy]propyl}pyrrolidinyl(methyl)carbamate]
34 | 21 nM | CN(C)C(=O)N(C)[C@@H]1CCN(CCCOc2ccc(-c3ccc(C#N)cc3)cc2)C1 [Example 115, N-((3R)-1-{3-[(4′-cyano[1,1′-biphenyl]-4-yl)oxy]propyl}pyrrolidinyl)-N,N,′N′-trimethylurea]
35 | 14 nM | CN(C(=O)N1CCCC1)[C@@H]1CCN(CCCOc2ccc(-c3ccc(C#N)cc3)cc2)C1 [Example 116]
